Laboratory results from US6914045B2, “Glycopeptide antibiotics” (Wyeth Holdings Corporation, priority 2001, dated 2005).
Converted amounts (≈) assume the structure as drawn. Each block holds one molecule with its values, some of them ahead of it. Numbered stars: 1 amine (or outer) side, 2 acyl side, 3 side chain; on linkers, the order of the positions; unused ones are H or OH. Square brackets hold non-standard residues; d marks the D form. Peptide text beside a SMILES is read from it. * marks the point of attachment. ξ: configuration not given here. X6 = N=C1NCC(CC(N[*:1])C(=O)[*:2])N1C1OC(CO)C(O)C(O)C1O; ξEnduracididine(βξ-OH,4'ξ) = N=C1NCC(C(O)C(N)C(=O)O)N1; X2 = OCC1OC(OC2C(CO)OC(*)C(O)C2O)C(O)C(O)C1O; ξPhe(βξ-Me) = CC(c1ccccc1)C(N)C(=O)O

Tests used:
Assay in all cases: in vitro antibacterial evaluation, MIC by broth dilution
Assay type in all cases: cell-based
[1] = test system: Staphylococcus sp.; conditions: broth dilution, 18 hours at 35° C.
Summary of the method: (§1)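 Broth dilution per NCCLS standard M7-A2 in Muller-Hinton II […], with an inoculum of 5×10^5 CFU/mL and antibiotic spanning 64-0.06 μg/mL. The MIC is the lowest concentration that inhibits growth of the organism.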

[2] = test system: Streptococcus sp.; conditions: broth dilution, 18 hours at 35° C.; for MIC Streptococcus agalactiae (GC 4564): strain GC 4564
Summary of the method: as §1

[3] = test system: Escherichia coli; conditions: 18 hours at 35° C.
Summary of the method: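 MIC = lowest antibiotic concentration preventing visible growth; inoculum 5×10^5 CFU/mL; drug range 64-0.06 μg/mL; Muller-Hinton II […]; NCCLS M7-A2 guidance.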

[4] = test system: Enterococcus sp.; conditions: broth dilution, 18 hours at 35° C.; for MIC Enterococcus faecalis (GC 2242): strain GC 2242; for MIC Enterococcus faecalis (GC 4552): strain GC 4552
Summary of the method: as §1

[5] = Enterococcus faecalis (ATCC 29212)
[6] = Enterococcus faecalis (GC 4553)
[7] = Enterococcus faecalis (GC 4554)

MIC Coagulase Negative Staphylococcus (GC 4547) [1]: >128 µg/mL | MIC Coagulase Negative Staphylococcus (GC 4548) [1]: >128 µg/mL | MIC Coagulase Negative Staphylococcus (GC 4549) [1]: >128 µg/mL | MIC Coagulase Negative Staphylococcus (GC 4551) [1]: >128 µg/mL | MIC Staphylococcus aureus (ATCC 29213) [1]: >128 µg/mL | MIC Staphylococcus aureus (GC 1131) [1]: >128 µg/mL | MIC Staphylococcus aureus (GC 3051) [1]: >128 µg/mL | MIC Staphylococcus aureus (GC 3053) [1]: >128 µg/mL | MIC Staphylococcus aureus (GC 4541) [1]: >128 µg/mL | MIC Staphylococcus aureus (GC 4542) [1]: >128 µg/mL | MIC Staphylococcus aureus (GC 4544) [1]: >128 µg/mL | MIC Staphylococcus aureus (GC 4545) [1]: >128 µg/mL | MIC Staphylococcus aureus-SMITH (GC 4543) [1]: >128 µg/mL | MIC Staphylococcus aureus (ATCC 29213) ([1]; strain ATCC 29213): >128 µg/mL | MIC Staphylococcus aureus (GC 1131) ([1]; strain GC 1131): >128 µg/mL | MIC Staphylococcus aureus (GC 3051) ([1]; strain GC 3051): >128 µg/mL | MIC Staphylococcus aureus (GC 3053) ([1]; strain GC 3053): >128 µg/mL | MIC Staphylococcus aureus (GC 4541) ([1]; strain GC 4541): >128 µg/mL | MIC Staphylococcus aureus (GC 4542) ([1]; strain GC 4542): >128 µg/mL | MIC Staphylococcus aureus (GC 4544) ([1]; strain GC 4544): >128 µg/mL | MIC Staphylococcus aureus (GC 4545) ([1]; strain GC 4545): >128 µg/mL | MIC Coagulase Negative Staphylococcus (GC 4547) ([1]; strain GC 4547): >128 µg/mL | MIC Coagulase Negative Staphylococcus (GC 4548) ([1]; strain GC 4548): >128 µg/mL | MIC Coagulase Negative Staphylococcus (GC 4549) ([1]; strain GC 4549): >128 µg/mL | MIC Coagulase Negative Staphylococcus (GC 4551) ([1]; strain GC 4551): >128 µg/mL | MIC Staphylococcus aureus-SMITH (GC 4543) ([1]; strain SMITH GC 4543): >128 µg/mL | MIC Streptococcus pneumoniae (ATCC 6301) ([2]; strain ATCC 6301): >128 µg/mL | MIC Streptococcus pneumoniae (GC 1894) ([2]; strain GC 1894): 128 µg/mL (≈ 100 µM) | MIC Streptococcus pyogenes (GC 4563) ([2]; strain GC 4563): >128 µg/mL | MIC Streptococcus agalactiae (GC 4564) [2]: >128 µg/mL | MIC Streptococcus pneumoniae (GC 4565) ([2]; strain GC 4565): >128 µg/mL | MIC Escherichia coli (ATCC 25922) [3]: >128 µg/mL | MIC Escherichia coli (GC 4559) [3]: >128 µg/mL | MIC Escherichia coli (GC 4560) [3]: >128 µg/mL | MIC Enterococcus avium (GC 4558) ([4]; Enterococcus avium (GC 4558)): 128 µg/mL (≈ 100 µM) | MIC Enterococcus faecalis (ATCC 29212) [4, 5]: >128 µg/mL | MIC Enterococcus faecalis (GC 4553) [4, 6]: >128 µg/mL | MIC Enterococcus faecalis (GC 4554) [4, 7]: >128 µg/mL | MIC Enterococcus faecalis (GC 6189) ([4]; Enterococcus faecalis (GC 6189)): >128 µg/mL | MIC Enterococcus faecium (GC 2243) ([4]; Enterococcus faecium (GC 2243)): >128 µg/mL | MIC Enterococcus faecium (GC 4556) ([4]; Enterococcus faecium (GC 4556)): >128 µg/mL | MIC Enterococcus faecium (GC 4557) ([4]; Enterococcus faecium (GC 4557)): 128 µg/mL (≈ 100 µM) | MIC Enterococcus faecalis (ATCC 29212) ([4]; strain ATCC 29212): >128 µg/mL | MIC Enterococcus faecalis (GC 2242) [4]: >128 µg/mL | MIC Enterococcus faecium (GC 2243) ([4]; strain GC 2243): >128 µg/mL | MIC Enterococcus faecalis (GC 2691) ([4]; strain GC 2691): >128 µg/mL | MIC Enterococcus faecalis (GC 3059) ([4]; strain GC 3059): >128 µg/mL | MIC Enterococcus faecalis (GC 4552) [4]: >128 µg/mL | MIC Enterococcus faecalis (GC 4553) ([4]; strain GC 4553): >128 µg/mL | MIC Enterococcus faecalis (GC 4554) ([4]; strain GC 4554): >128 µg/mL | MIC Enterococcus faecium (GC 4556) ([4]; strain GC 4556): >128 µg/mL | MIC Enterococcus faecium (GC 4557) ([4]; strain GC 4557): 128 µg/mL (≈ 100 µM) | MIC Enterococcus avium (GC 4558) ([4]; strain GC 4558): 128 µg/mL (≈ 100 µM) | MIC Enterococcus faecalis (GC 6189) ([4]; strain GC 6189): >128 µg/mL
Compound: CC(c1ccccc1)C1NC(=O)CNC(=O)C(CO)NC(=O)C(CC2CNC(=N)N2C2OC(CO)C(O)C(O)C2O)NC(=O)C(C(O)C2CNC(=N)N2)NC(=O)C(Cc2ccc(OC3OC(CO)C(OC4OC(CO)C(O)C(O)C4O)C(O)C3O)cc2)NC1=O (stereo not drawn) [Example 284b, Cyclo[3-(3-hexopyranosyl-2-iminoimidazolidin-4-yl)-alanylserylglycl-β-methylphenylalanyl-O-(4-O-hexopyranosylhexopyranosyl)tyrosyl-3-(2-iminoimidazolidin-4-yl)seryl]] (cyclo(G[ξPhe(βξ-Me)]Y(X2)[ξEnduracididine(βξ-OH,4'ξ)][X6]S); configuration not given here)
MIC Staphylococcus haemolyticus (GC 4546) [1]: >128 µg/mL | MIC Staphylococcus haemolyticus (GC 4546) ([1]; strain GC 4546): >128 µg/mL

MIC Coagulase Negative Staphylococcus (GC 4547) [1]: 8 µg/mL (≈ 5.72 µM) | MIC Coagulase Negative Staphylococcus (GC 4548) [1]: 4 µg/mL (≈ 2.86 µM) | MIC Coagulase Negative Staphylococcus (GC 4549) [1]: 4 µg/mL (≈ 2.86 µM) | MIC Coagulase Negative Staphylococcus (GC 4551) [1]: 8 µg/mL (≈ 5.72 µM) | MIC Staphylococcus aureus (ATCC 29213) [1]: 8 µg/mL (≈ 5.72 µM) | MIC Staphylococcus aureus (GC 1131) [1]: 16 µg/mL (≈ 11.4 µM) | MIC Staphylococcus aureus (GC 4541) [1]: 16 µg/mL (≈ 11.4 µM) | MIC Staphylococcus aureus (GC 4542) [1]: 16 µg/mL (≈ 11.4 µM) | MIC Staphylococcus aureus (GC 4544) [1]: 8 µg/mL (≈ 5.72 µM) | MIC Staphylococcus aureus (GC 4545) [1]: 16 µg/mL (≈ 11.4 µM) | MIC Staphylococcus aureus-SMITH (GC 4543) [1]: 8 µg/mL (≈ 5.72 µM) | MIC Staphylococcus aureus (ATCC 29213) ([1]; strain ATCC 29213): 8 µg/mL (≈ 5.72 µM) | MIC Staphylococcus aureus (GC 1131) ([1]; strain GC 1131): 16 µg/mL (≈ 11.4 µM) | MIC Staphylococcus aureus (GC 4541) ([1]; strain GC 4541): 16 µg/mL (≈ 11.4 µM) | MIC Staphylococcus aureus (GC 4542) ([1]; strain GC 4542): 16 µg/mL (≈ 11.4 µM) | MIC Staphylococcus aureus (GC 4544) ([1]; strain GC 4544): 8 µg/mL (≈ 5.72 µM) | MIC Staphylococcus aureus (GC 4545) ([1]; strain GC 4545): 16 µg/mL (≈ 11.4 µM) | MIC Streptococcus agalactiae (GC 4564) [2]: 8 µg/mL (≈ 5.72 µM) | MIC Streptococcus pyogenes (ID-3187) ([2]; strain ID-3187): 4 µg/mL (≈ 2.86 µM) | MIC Escherichia coli (ATCC 25922) [3]: >64 µg/mL | MIC Escherichia coli (GC 4559) [3]: >64 µg/mL | MIC Escherichia coli (GC 4560) [3]: 4 µg/mL (≈ 2.86 µM) | MIC Enterococcus avium (GC 4558) ([4]; Enterococcus avium (GC 4558)): 64 µg/mL (≈ 45.8 µM) | MIC Enterococcus faecalis (ATCC 29212) [4, 5]: >64 µg/mL | MIC Enterococcus faecalis (GC 4553) [4, 6]: 64 µg/mL (≈ 45.8 µM) | MIC Enterococcus faecalis (GC 4554) [4, 7]: >64 µg/mL | MIC Enterococcus faecium (GC 2243) ([4]; Enterococcus faecium (GC 2243)): >64 µg/mL | MIC Enterococcus faecium (GC 4556) ([4]; Enterococcus faecium (GC 4556)): 64 µg/mL (≈ 45.8 µM) | MIC Enterococcus faecium (GC 4557) ([4]; Enterococcus faecium (GC 4557)): 16 µg/mL (≈ 11.4 µM) | MIC Enterococcus faecalis (ATCC 29212) ([4]; strain ATCC 29212): >64 µg/mL | MIC Enterococcus faecalis (GC 2242) [4]: 64 µg/mL (≈ 45.8 µM) | MIC Enterococcus faecium (GC 2243) ([4]; strain GC 2243): >64 µg/mL | MIC Enterococcus faecalis (GC 4552) [4]: 64 µg/mL (≈ 45.8 µM) | MIC Enterococcus faecalis (GC 4553) ([4]; strain GC 4553): 64 µg/mL (≈ 45.8 µM) | MIC Enterococcus faecalis (GC 4554) ([4]; strain GC 4554): >64 µg/mL | MIC Enterococcus faecium (GC 4556) ([4]; strain GC 4556): 64 µg/mL (≈ 45.8 µM) | MIC Enterococcus faecium (GC 4557) ([4]; strain GC 4557): 16 µg/mL (≈ 11.4 µM) | MIC Enterococcus avium (GC 4558) ([4]; strain GC 4558): 64 µg/mL (≈ 45.8 µM)
Compound: CC(C)CC(=O)OC1C(OC2C(CO)OC(Oc3ccc(CC4NC(=O)C(C(C)c5ccc(F)cc5)NC(=O)CNC(=O)C(CO)NC(=O)C(C(O)C5CNC(=N)N5C5OC(CO)C(O)C(O)C5O)NC(=O)C(C(O)C5CNC(=N)N5)NC4=O)cc3)C(O)C2O)OC(CO)C(O)C1O (stereo not drawn) [Example 261b, Cyclo[glycyl-4-fluoro-β-methylphenylalanyl-O-[4-O-[2-O-(3-methylbutanoyl)hexopyranosyl]-hexopyranosyl]tyrosyl-3-(2-iminoimidazolidin-4-yl)seryl-3-(3-hexopyranosyl-2-imino-imidazolidin-4-yl)serylseryl]]
MIC Staphylococcus haemolyticus (GC 4546) [1]: 8 µg/mL (≈ 5.72 µM)
